Reference: PMC9516332 (Frontiers in Oncology, 2022)
Read-outs that look alike come from different tables or passages of the source.

Legend:
AP-1060 (ETV6-NTRK3) = test: Cell viability assay; settings: read-out: IC50 in cell proliferation assay
134 cancer cell lines = test: Cell viability assay (ATPlite, 72 hours), IC50 on cancer cell line panel

O=C(c1ccc(F)c(F)c1Nc1ccc(I)cc1F)N1CC(O)([C@@H]2CCCCN2)C1 [cobimetinib]
IC50 (AP-1060 (ETV6-NTRK3)): 7330 nM
IC50 (134 cancer cell lines; HEC-6, read-out: IC50 in cell proliferation assay, HEC-6 cell line (EGFR p.A289V)): 164 nM
IC50 (134 cancer cell lines; Homo sapiens, 769-P, read-out: IC50 in cell proliferation assay, cell line 769-P): 423 nM
IC50 (134 cancer cell lines; Homo sapiens, 786-0, read-out: IC50 in cell proliferation assay, cell line 786-O): 205 nM
IC50 (134 cancer cell lines; Homo sapiens, A 172, read-out: IC50 in cell proliferation assay, cell line A-172): 218 nM
IC50 (134 cancer cell lines; Homo sapiens, A204, read-out: IC50 in cell proliferation assay, cell line A-204): 900 nM
IC50 (134 cancer cell lines; Homo sapiens, A498, read-out: IC50 in cell proliferation assay, cell line A-498): 3910 nM
IC50 (134 cancer cell lines; Homo sapiens, A549, read-out: IC50 in cell proliferation assay, cell line A-549): 255 nM
IC50 (134 cancer cell lines; Homo sapiens, A704, read-out: IC50 in cell proliferation assay, cell line A-704): > 10000 nM
IC50 (134 cancer cell lines; Homo sapiens, A-375, read-out: IC50 in cell proliferation assay, cell line A-375 (BRAF p.V600E)): 13 nM
IC50 (134 cancer cell lines; Homo sapiens, A-427, read-out: IC50 in cell proliferation assay, cell line A-427): 72 nM
IC50 (134 cancer cell lines; Homo sapiens, ACHN, read-out: IC50 in cell proliferation assay, cell line ACHN): 104 nM
IC50 (134 cancer cell lines; Homo sapiens, AN3-CA, read-out: IC50 in cell proliferation assay, cell line AN3-CA (FGFR2 p.N549K)): 558 nM
IC50 (134 cancer cell lines; Homo sapiens, ASPC1, read-out: IC50 in cell proliferation assay, cell line AsPC-1): 61 nM
IC50 (134 cancer cell lines; Homo sapiens, AU565, read-out: IC50 in cell proliferation assay, cell line AU565 (ERBB2 amplification)): > 10000 nM
IC50 (134 cancer cell lines; Homo sapiens, BT-20, read-out: IC50 in cell proliferation assay, cell line BT-20): > 10000 nM
IC50 (134 cancer cell lines; Homo sapiens, BT-474, read-out: IC50 in cell proliferation assay, cell line BT-474 (ERBB2 amplification)): 5990 nM
IC50 (134 cancer cell lines; Homo sapiens, BT-549, read-out: IC50 in cell proliferation assay, cell line BT-549): 5720 nM
IC50 (134 cancer cell lines; Homo sapiens, BXPC-3, read-out: IC50 in cell proliferation assay, cell line BxPC-3): 10 nM
IC50 (134 cancer cell lines; Homo sapiens, C-33-A, read-out: IC50 in cell proliferation assay, cell line C-33 A): 43 nM
IC50 (134 cancer cell lines; Homo sapiens, CAL-27, read-out: IC50 in cell proliferation assay, cell line CAL-27): 63 nM
IC50 (134 cancer cell lines; Homo sapiens, CCF-STTG1, read-out: IC50 in cell proliferation assay, cell line CCF-STTG1): > 10000 nM
IC50 (134 cancer cell lines; Homo sapiens, CCRF-CEM, read-out: IC50 in cell proliferation assay, cell line CCRF-CEM): 8480 nM
IC50 (134 cancer cell lines; Homo sapiens, COLO 205, read-out: IC50 in cell proliferation assay, cell line COLO 205 (BRAF p.V600E)): 10 nM
IC50 (134 cancer cell lines; Homo sapiens, COLO-829, read-out: IC50 in cell proliferation assay, cell line COLO 829 (BRAF p.V600E)): 28 nM
IC50 (134 cancer cell lines; Homo sapiens, DLD-1, read-out: IC50 in cell proliferation assay, cell line DLD-1): 724 nM
IC50 (134 cancer cell lines; Homo sapiens, DU-4475, read-out: IC50 in cell proliferation assay, cell line DU4475 (BRAF p.V600E)): 17 nM
IC50 (134 cancer cell lines; Homo sapiens, Daoy, read-out: IC50 in cell proliferation assay, cell line Daoy): > 10000 nM
IC50 (134 cancer cell lines; Homo sapiens, DoTc2-4510, read-out: IC50 in cell proliferation assay, cell line DoTc2 4510): 42 nM
IC50 (134 cancer cell lines; Homo sapiens, EOL1, read-out: IC50 in cell proliferation assay, cell line EoL-1 (FIP1L1-PDGFRA)): 87 nM
IC50 (134 cancer cell lines; Homo sapiens, FaDu, read-out: IC50 in cell proliferation assay, cell line FaDu): 146 nM
IC50 (134 cancer cell lines; Homo sapiens, G-361, read-out: IC50 in cell proliferation assay, cell line G-361 (BRAF p.V600E)): 11 nM
IC50 (134 cancer cell lines; Homo sapiens, HCC827, read-out: IC50 in cell proliferation assay, cell line HCC827 (EGFR exon19del)): 321 nM
IC50 (134 cancer cell lines; Homo sapiens, HCC4006, read-out: IC50 in cell proliferation assay, cell line HCC4006 (EGFR exon19del)): 1280 nM
IC50 (134 cancer cell lines; Homo sapiens, HCT-15, read-out: IC50 in cell proliferation assay, cell line HCT 15): 3580 nM
IC50 (134 cancer cell lines; Homo sapiens, HCT-116, read-out: IC50 in cell proliferation assay, cell line HCT 116): 106 nM
IC50 (134 cancer cell lines; Homo sapiens, HEC-1, read-out: IC50 in cell proliferation assay, HEC-1 cell line): 368 nM
IC50 (134 cancer cell lines; Homo sapiens, HEC-1B, read-out: IC50 in cell proliferation assay, HEC-1-B cell line (EGFR p.A864V)): 13 nM
IC50 (134 cancer cell lines; Homo sapiens, HL-60, read-out: IC50 in cell proliferation assay, HL-60 cell line): 19 nM
IC50 (134 cancer cell lines; Homo sapiens, HT, read-out: IC50 in cell proliferation assay, HT cell line): > 10000 nM
IC50 (134 cancer cell lines; Homo sapiens, HT-1080, read-out: IC50 in cell proliferation assay, HT-1080 cell line): 68 nM
IC50 (134 cancer cell lines; Homo sapiens, Hs746T, read-out: IC50 in cell proliferation assay, Hs 746.T cell line (MET exon14skip + amplification)): 530 nM
IC50 (134 cancer cell lines; Homo sapiens, Hs-578T, read-out: IC50 in cell proliferation assay, Hs 578T cell line): 2220 nM
IC50 (134 cancer cell lines; Homo sapiens, HuTu80, read-out: IC50 in cell proliferation assay, HuTu 80 cell line): 319 nM
IC50 (134 cancer cell lines; Homo sapiens, J82, read-out: IC50 in cell proliferation assay, J82 cell line): 85 nM
IC50 (134 cancer cell lines; Homo sapiens, Jurkat E6.1, read-out: IC50 in cell proliferation assay, Jurkat E6.1 cell line): > 10000 nM
IC50 (134 cancer cell lines; Homo sapiens, K562, read-out: IC50 in cell proliferation assay, K-562 cell line): 73 nM
IC50 (134 cancer cell lines; Homo sapiens, KATO III, read-out: IC50 in cell proliferation assay, KATO III cell line (FGFR2 amplification)): 291 nM
IC50 (134 cancer cell lines; Homo sapiens, KG-1, read-out: IC50 in cell proliferation assay, KG-1 cell line (FGFR1OP2-FGFR1)): 26 nM
IC50 (134 cancer cell lines; Homo sapiens, KLE, read-out: IC50 in cell proliferation assay, KLE cell line): > 10000 nM
IC50 (134 cancer cell lines; Homo sapiens, KMS-11, read-out: IC50 in cell proliferation assay, KMS-11 cell line (FGFR3 p.Y373C)): 4120 nM
IC50 (134 cancer cell lines; Homo sapiens, KU812, read-out: IC50 in cell proliferation assay, Ku812 cell line): 64 nM
IC50 (134 cancer cell lines; Homo sapiens, Kasumi 1, read-out: IC50 in cell proliferation assay, Kasumi-1 cell line (KIT p.N822K)): 62 nM
IC50 (134 cancer cell lines; Homo sapiens, LC-2-ad, read-out: IC50 in cell proliferation assay, LC-2/ad cell line (CCDC6-RET)): 1190 nM
IC50 (134 cancer cell lines; Homo sapiens, LNCaP-Clone-FGC, read-out: IC50 in cell proliferation assay, LNCaP clone FGC cell line): 9640 nM
IC50 (134 cancer cell lines; Homo sapiens, LS174T, read-out: IC50 in cell proliferation assay, LS174T cell line): 25 nM
IC50 (134 cancer cell lines; Homo sapiens, LS-411N, read-out: IC50 in cell proliferation assay, LS411N cell line (BRAF p.V600E)): 21 nM
IC50 (134 cancer cell lines; Homo sapiens, LoVo, read-out: IC50 in cell proliferation assay, LoVo cell line): 118 nM
IC50 (134 cancer cell lines; Homo sapiens, MCF7, read-out: IC50 in cell proliferation assay, MCF-7 cell line): 8550 nM
IC50 (134 cancer cell lines; Homo sapiens, MDA-MB-231, read-out: IC50 in cell proliferation assay, MDA-MB-231 cell line): 192 nM
IC50 (134 cancer cell lines; Homo sapiens, MDA-MB-453, read-out: IC50 in cell proliferation assay, MDA-MB-453 cell line): 501 nM
IC50 (134 cancer cell lines; Homo sapiens, MDA-MB-468, read-out: IC50 in cell proliferation assay, MDA-MB-468 cell line): 248 nM
IC50 (134 cancer cell lines; Homo sapiens, MG-63, read-out: IC50 in cell proliferation assay, MG-63 cell line): 421 nM
IC50 (134 cancer cell lines; Homo sapiens, MIA PaCa-2, read-out: IC50 in cell proliferation assay, MIA PaCa-2 cell line): 68 nM
IC50 (134 cancer cell lines; Homo sapiens, MKN-45, read-out: IC50 in cell proliferation assay, MKN45 cell line (MET amplification)): 294 nM
IC50 (134 cancer cell lines; Homo sapiens, MOLM-13, read-out: IC50 in cell proliferation assay, MOLM-13 cell line (FLT3 ITD)): 172 nM
